Literature values, collected in patent publication US20250073171A1, “DRUG DELIVERY SYSTEM FOR THE TREATMENT OF FEMALE SEXUAL INTEREST AND AROUSAL DISORDER” (Freya Pharma Solutions Holding B.V., priority 2023, published 2025).

Assays:
albumin = albumin (Homo sapiens, UniProt P02768); settings: bloodstream
SHBG = target: T1, SHBG (Homo sapiens, UniProt P04278); settings: bloodstream
T1 sequence (P04278 30-402): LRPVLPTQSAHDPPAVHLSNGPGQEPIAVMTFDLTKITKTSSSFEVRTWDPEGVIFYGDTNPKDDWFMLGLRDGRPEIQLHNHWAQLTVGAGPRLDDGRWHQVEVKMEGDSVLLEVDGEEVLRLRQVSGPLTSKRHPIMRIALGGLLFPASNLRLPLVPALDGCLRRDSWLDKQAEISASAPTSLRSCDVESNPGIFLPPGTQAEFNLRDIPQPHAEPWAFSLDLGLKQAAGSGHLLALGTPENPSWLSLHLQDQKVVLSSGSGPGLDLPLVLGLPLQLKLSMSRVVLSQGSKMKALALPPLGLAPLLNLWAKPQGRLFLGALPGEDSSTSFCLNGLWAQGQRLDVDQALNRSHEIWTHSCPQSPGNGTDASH

Sequence of albumin (P02768 25-609): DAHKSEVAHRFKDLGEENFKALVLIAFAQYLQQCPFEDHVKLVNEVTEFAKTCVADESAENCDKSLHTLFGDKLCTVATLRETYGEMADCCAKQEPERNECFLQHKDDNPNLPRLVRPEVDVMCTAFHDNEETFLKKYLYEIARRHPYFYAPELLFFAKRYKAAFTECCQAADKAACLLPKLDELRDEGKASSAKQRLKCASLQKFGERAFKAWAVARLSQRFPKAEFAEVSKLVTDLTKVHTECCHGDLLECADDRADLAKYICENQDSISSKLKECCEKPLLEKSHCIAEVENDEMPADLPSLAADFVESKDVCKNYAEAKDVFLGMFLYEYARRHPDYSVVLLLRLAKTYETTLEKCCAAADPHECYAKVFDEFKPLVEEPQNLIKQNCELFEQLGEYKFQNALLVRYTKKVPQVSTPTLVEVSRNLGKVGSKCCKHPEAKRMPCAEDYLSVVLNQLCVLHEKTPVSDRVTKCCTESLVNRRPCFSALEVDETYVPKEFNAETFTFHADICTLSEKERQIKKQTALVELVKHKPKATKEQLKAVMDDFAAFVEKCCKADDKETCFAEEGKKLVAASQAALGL

For `C[C@]12CC[C@H]3[C@@H](CCC4=CC(=O)CC[C@@]43C)[C@@H]1CC[C@@H]2O` [testosterone, 17-[beta]-hydroxyandrost-4-en-3-one], the “albumin-bound testosterone, percentage of total testosterone” value (albumin) is given as 30-40%, the “SHBG-bound testosterone, percentage of total testosterone” value (SHBG) is given as 60-70% and the “free testosterone, percentage of total testosterone” value (bloodstream) is given as 1-2%. The “T1/2 of free testosterone” value (metabolism of free testosterone) was “approximately 10 min”.
